Assay results as given in ChEMBL document CHEMBL3244259, “Synthesis and anti-herpes simplex activity of analogues of phosphonoacetic acid” (J Med Chem, 1977).
Calls of active or inactive are those of the source. The calls are words filed in the database; no cut-off is given here.

Key:
Human alphaherpesvirus 2 [1] = test: Antiviral activity against Human herpesvirus 2 infected in CF mouse assessed as suppression of virus-induced dermatitis administered topically as 2% aqueous solution twice daily for 6 days measured after day 17; format: functional, organism-based
[2] = Inhibition of HSV type-2 DNA polymerase after 30 mins by liquid scintillation counting analysis in presence of dATP, dCTP, dGTP and [3H]-TTP; design: species or system Human alphaherpesvirus 2
Human alphaherpesvirus 2 [3] = test: Antiviral activity against Human herpesvirus 2 infected in CF mouse assessed as suppression of virus-induced dermatitis at 800 mg/kg/day, po administered for 6 days measured after day 17; format: functional, organism-based
Human alphaherpesvirus 2 [4] = test: Antiviral activity against Human herpesvirus 2 infected in CF mouse assessed as suppression of virus-induced dermatitis at 100 to 1000 mg/kg/day, po administered for 6 days measured after day 17; format: functional, organism-based

In the case of O=C(O)CP(=O)(O)c1ccccc1, the Activity (Human alphaherpesvirus 2 [1]) is reported as “inactive”, the I50 [2] is reported as 200 µg/mL and the Activity (Human alphaherpesvirus 2 [3]) is reported as “inactive”.

CCCCCCCCOC(=O)CP(=O)(O)O gave an I50 [2] of 0.26 µg/mL.

With CP(=O)(O)CC(=O)O the Activity (Human alphaherpesvirus 2 [1]) was “inactive” and the I50 [2] was 145 µg/mL.

CC(C)(C)OC(=O)CP(=O)(O)O gave an I50 [2] of 3.9 µg/mL.

With CCCOC(=O)CP(=O)(O)O the Activity (Human alphaherpesvirus 2 [1]) was “Active”, the I50 [2] was 0.16 µg/mL and the Activity (Human alphaherpesvirus 2 [4]) was “Active”.

Work on O=C(CP(=O)(O)O)OCc1ccccc1 yielded an I50 [2] of 40 µg/mL.

In the case of COc1ccc(P(=O)(O)CC(=O)O)cc1, the Activity (Human alphaherpesvirus 2 [1]) is reported as “inactive”, the I50 [2] is reported as 150 µg/mL and the Activity (Human alphaherpesvirus 2 [3]) is reported as “inactive”.

For O=C(O)CP(=O)([O-])[O-].[Na+].[Na+] [DISODIUM CARBOXYMETHYLPHOSPHONATE], the I50 [2] was 0.22 µg/mL.

Work on O=C(CP(=O)(O)O)OC1CCCCC1 yielded an I50 [2] of 49 µg/mL.

With CCCCCCOP(=O)(O)CC(=O)O the Activity (Human alphaherpesvirus 2 [1]) was “Active” and the Activity (Human alphaherpesvirus 2 [3]) was “Active”.

For CCCOP(=O)(O)CC(=O)O, the I50 [2] was 200 µg/mL.

In the case of COP(=O)(O)CC(=O)O, the I50 [2] is reported as 19.9 µg/mL.
